Patent US8563551B2, “Method for preventing or treating a disease related to the glucocorticoid receptor” (Santen Pharmaceutical Co., Ltd., priority 2006, dated 2013)

Target: T1, Recombinant human GR (Homo sapiens, UniProt P04150)
T1 construct: purchased Invitrogen P2816
T1 sequence (P04150 1-777): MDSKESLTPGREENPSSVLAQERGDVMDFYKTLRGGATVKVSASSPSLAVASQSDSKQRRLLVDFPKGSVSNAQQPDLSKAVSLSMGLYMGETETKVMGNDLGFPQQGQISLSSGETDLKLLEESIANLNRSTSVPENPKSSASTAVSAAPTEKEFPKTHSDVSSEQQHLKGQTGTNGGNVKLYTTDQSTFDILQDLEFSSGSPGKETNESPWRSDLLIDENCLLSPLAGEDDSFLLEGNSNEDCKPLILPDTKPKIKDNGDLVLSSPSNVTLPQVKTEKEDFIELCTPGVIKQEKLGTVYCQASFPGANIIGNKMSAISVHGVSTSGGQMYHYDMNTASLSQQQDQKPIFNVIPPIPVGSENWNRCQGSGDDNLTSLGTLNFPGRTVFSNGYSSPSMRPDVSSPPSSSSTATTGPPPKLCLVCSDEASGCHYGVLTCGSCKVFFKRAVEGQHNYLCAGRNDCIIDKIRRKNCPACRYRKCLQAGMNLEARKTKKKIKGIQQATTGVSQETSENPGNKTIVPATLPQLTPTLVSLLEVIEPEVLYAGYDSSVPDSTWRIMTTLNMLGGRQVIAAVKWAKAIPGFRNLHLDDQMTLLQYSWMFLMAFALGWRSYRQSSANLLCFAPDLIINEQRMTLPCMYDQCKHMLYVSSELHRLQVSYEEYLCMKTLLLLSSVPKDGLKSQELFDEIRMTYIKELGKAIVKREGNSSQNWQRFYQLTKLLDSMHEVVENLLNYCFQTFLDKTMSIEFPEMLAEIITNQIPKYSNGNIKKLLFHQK
Test: GR competitor assay (receptor competitor assay by fluorescence polarization, Invitrogen kit P2816)
Conditions: 20 μM test compound solution (10 μL per well plus 5 μL 4×GS1 and 5 μL 4×GR); relative to 2 mM dexamethasone positive control; ratios of 100% or more are indicated by 100%; read-out: GR Binding ratio (%)
Protocol: In order to evaluate a binding activity to GR, a receptor competitor assay was carried out by a fluorescence polarization method. In the assay, a GR competitor assay kit (manufactured by Invitrogen, cat No. P2816) was used, and a procedure was carried out according to the protocol attached to the kit. Hereinafter, the specific method will be described.
GR screening buffer: A buffer containing 10 mM potassium phosphate (pH 7.4), 20 mM sodium molybdate (Na2MoO4), 0.1 mM ethylene diamine tetraacetic acid (EDTA), 5 mM dithiothreitol (DTT), 0.1 mM stabilizing peptide and 2% dimethylsulfoxide was prepared.
4×GS1 solution: Fluormone™ GS1, which is a fluorescent glucocorticoid ligand, was diluted with GR screening buffer, whereby a 4 nM solution was prepared.
4×GR solution: Recombinant human GR was diluted with GR screening buffer, whereby a 16 nM solution was prepared.
After a test compound was dissolved in dimethylsulfoxide, the resulting solution was diluted with GR screening buffer, whereby a 20 μM test compound solution was prepared.
1) The test compound solution was added in an amount of 10 μL into each well of a 384-well plate, and then, 4×GS1 solution and 4×GR solution were added in an amount of 5 μL into each well, respectively.
2) The plate was incubated in a dark place at room temperature for 2 to 4 hours.
3) By using a multimode plate reader, Analyst™ HT (manufactured by LJL Biosystems), fluorescence polarization of each well was measured. As the blank, a well containing GR screening buffer in place of the test compound and 4×GS1 solution was used.
4) The same procedure as that in the above 1) to 3) was carried out except that GR screening buffer was used in place of the test compound solution, and the obtained result was taken as the negative control.
5) The same procedure as that in the above 1) to 3) was carried out except that 2 mM dexamethasone was used in place of the test compound solution, and the obtained result was taken as the positive control.
A GR binding ratio (%) was calculated from the following equation. GR binding ratio(%)=100×[1−(fluorescence polarization of test compound solution−fluorescence polarization of positive control solution)/(fluorescence polarization of negative control solution fluorescence polarization of positive control solution)] (Test Results and Discussion)

SMILES | inhibition at 20 µM (stock) [%] | inhibition at 20 µM [%]
COc1cc(OS(=O)(=O)CC(C)C)ccc1-c1ccc2c(c1COC(=O)c1ccc(C)s1)C(C)=CC(C)(C)N2 [Compound 2-3] | 97 | 
COc1cc(OS(=O)(=O)C(C)C)ccc1-c1ccc2c(c1COC(=O)c1ccc(C)s1)C(C)=CC(C)(C)N2 [Compound 2-4, 6-(4-Isopropylsulfonyloxy-2-methoxyphenyl)-5-(5-methylthiophen-2-ylcarbonyloxymethyl)-2,2,4-trimethyl-1,2-dihydroquinoline] | 100 | 
COc1cc(OS(=O)(=O)C2CCCC2)ccc1-c1ccc2c(c1COC(=O)c1ccc(C)s1)C(C)=CC(C)(C)N2 [Compound 2-5, 6-(4-Cyclopentylsulfonyloxy-2-methoxyphenyl)-5-(5-methylthiophen-2-ylcarbonyloxymethyl)-2,2,4-trimethyl-1,2-dihydroquinoline] | 100 | 
COc1cc(OS(C)(=O)=O)ccc1-c1ccc2c(c1COC(=O)c1ccc(C)s1)C(C)=CC(C)(C)N2 [Compound 2-6, 6-(2-Methoxy-4-methylsulfonyloxyphenyl)-5-(5-methylthiophen-2-ylcarbonyloxymethyl)-2,2,4-trimethyl-1,2-dihydroquinoline] | 100 | 
CCS(=O)(=O)Oc1ccc(-c2ccc3c(c2COC(=O)c2ccc(C)s2)C(C)=CC(C)(C)N3)c(OC)c1 [Compound 2-7, 6-(4-Ethylsulfonyloxy-2-methoxyphenyl)-5-(5-methylthiophen-2-ylcarbonyloxymethyl)-2,2,4-trimethyl-1,2-dihydroquinoline] | 100 | 
CCCCS(=O)(=O)Oc1ccc(-c2ccc3c(c2COC(=O)c2ccc(C)s2)C(C)=CC(C)(C)N3)c(OC)c1 [Compound 2-8, 6-(4-Butylsulfonyloxy-2-methoxyphenyl)-5-(5-methylthiophen-2-ylcarbonyloxymethyl)-2,2,4-trimethyl-1,2-dihydroquinoline] | 100 | 
COc1cc(OS(=O)(=O)C2CC2)ccc1-c1ccc2c(c1COC(=O)c1ccc(C)s1)C(C)=CC(C)(C)N2 [Compound 2-9, 6-(4-Cyclopropylsulfonyloxy-2-methoxyphenyl)-5-(5-methylthiophen-2-ylcarbonyloxymethyl)-2,2,4-trimethyl-1,2-dihydroquinoline] | 100 | 
COc1cc(OC(=O)Nc2cccnc2)ccc1-c1ccc2c(c1COC(=O)c1ccc(C)s1)C(C)=CC(C)(C)N2 [Compound 4-1, 6-[2-Methoxy-4-(pyridin-3-ylaminocarbonyloxy)phenyl]-5-(5-methylthiophen-2-ylcarbonyloxymethyl)-2,2,4-trim ethyl-1,2-dihydroquinoline] |  | 100

Now from value to compound, other results behind:

inhibition at 20 µM (stock) [%] | SMILES | inhibition at 20 µM [%]
91 | COC(=O)Oc1ccc(-c2ccc3c(c2COC(=O)c2ccc(C)s2)C(C)=CC(C)(C)N3)c(OC)c1 [Compound 3-1, 6-(2-Methoxy-4-methoxycarbonyloxyphenyl)-5-(5-methylthiophen-2-ylcarbonyloxymethyl)-2,2,4-trimethyl-1,2-dihydroquinoline] | 
94 | COc1cc(OC(=O)N2CCOCC2)ccc1-c1ccc2c(c1COC(=O)c1ccc(C)s1)C(C)=CC(C)(C)N2 [Compound 4-3, 6-[2-Methoxy-4-(morpholin-4-ylcarbonyloxy)phenyl]-5-(5-methylthiophen-2-ylcarbonyloxymethyl)-2,2,4-trimethyl-1,2-dihydroquinoline] | 
